# From patent US12083231B2, “Starch-based double-loaded functional nano particle as well as preparation method and application” (Hefei University of Technology, priority 2021, dated 2024)
# Experiment: Retention rate of quercetin and anthocyanin during storage for 14 days
# Assay type: physicochemical
# Conditions: after being stored for 14 days; nanoparticle with EHT:carboxymethyl dextrin mass ratio 1:1
# From the text: It can be seen from FIG. 8 that quercetin and anthocyanin alone are easy to degrade in the environment, and only about 20% of quercetin and anthocyanin can be retained after being stored for 14 days. […] The significant increase of retention rate proves that the starch-based double-loaded functional colloid nanoparticle can effectively protect quercetin and anthocyanin from being degraded.
Compound,retention rate of quercetin,retention rate of anthocyanin
O=c1c(O)c(-c2ccc(O)c(O)c2)oc2cc(O)cc(O)c12 [quercetin],about 20%,–
anthocyanin,–,about 20%
